Results from patent US20260138976A1 (Hoffmann-La Roche Inc., priority 2022, published 2026).

Legend:
[1] = target: T1, DGKζ (hDGKzeta(1-928)-N-His) (Homo sapiens, UniProt Q13574); assay: In vitro DGK inhibition assay, DGKzeta ADP Glo (in house); format: biochemical; conditions: 2 nM DGKζ, 50 μM ATP, 125 uM DLG in liposomes, 1 hour reaction
T1 construct: hDGKzeta(1-928)-N-His; His (N); made in house; host or cells: Sf21 insect cells (baculovirus)
Summary of the method: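 Full-length His-tagged human DGKα (4 nM) or DGKζ (2 nM), expressed in Sf21 cells, phosphorylated 125 µM DLG in PS/PC liposomes with ATP at 25 µM (α) or 50 µM (ζ) for 1 h. ADP was measured by ADP-Glo luminescence. Compounds were tested as 11-point 1:3 series in 2% DMSO.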

[2] = test system: primary human T-cells; assay: IL2 secretion measurements (24 h, CD3-stimulated T-cells, PBS counter screen); format: cell-based; conditions: for Emax IL2 (% activation): CD3 condition, normalised to DMSO (neutral) and 20 μM reference compound A1 = 100%; for EC50: Homo sapiens, T-cell, CD3-stimulated primary human T-cells, IL2 secretion, fitted sigmoidal curve, read-out: Tcell IL2 CD3 EC50
Summary of the method: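 Expanded primary human T-cells (100k/well) were plated on anti-CD3-coated or PBS-only plates with compound in a 5–6 point dose response (top 20 or 10 μM final, 3.333-fold, 0.2% DMSO). IL-2 in 24 h supernatants was quantified by ProQuantum immunoassay or ELISA. Values were normalized to DMSO and 20 μM reference compound A1 (100%), giving EC50 and Emax.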

T1 sequence (Q13574 whole entry): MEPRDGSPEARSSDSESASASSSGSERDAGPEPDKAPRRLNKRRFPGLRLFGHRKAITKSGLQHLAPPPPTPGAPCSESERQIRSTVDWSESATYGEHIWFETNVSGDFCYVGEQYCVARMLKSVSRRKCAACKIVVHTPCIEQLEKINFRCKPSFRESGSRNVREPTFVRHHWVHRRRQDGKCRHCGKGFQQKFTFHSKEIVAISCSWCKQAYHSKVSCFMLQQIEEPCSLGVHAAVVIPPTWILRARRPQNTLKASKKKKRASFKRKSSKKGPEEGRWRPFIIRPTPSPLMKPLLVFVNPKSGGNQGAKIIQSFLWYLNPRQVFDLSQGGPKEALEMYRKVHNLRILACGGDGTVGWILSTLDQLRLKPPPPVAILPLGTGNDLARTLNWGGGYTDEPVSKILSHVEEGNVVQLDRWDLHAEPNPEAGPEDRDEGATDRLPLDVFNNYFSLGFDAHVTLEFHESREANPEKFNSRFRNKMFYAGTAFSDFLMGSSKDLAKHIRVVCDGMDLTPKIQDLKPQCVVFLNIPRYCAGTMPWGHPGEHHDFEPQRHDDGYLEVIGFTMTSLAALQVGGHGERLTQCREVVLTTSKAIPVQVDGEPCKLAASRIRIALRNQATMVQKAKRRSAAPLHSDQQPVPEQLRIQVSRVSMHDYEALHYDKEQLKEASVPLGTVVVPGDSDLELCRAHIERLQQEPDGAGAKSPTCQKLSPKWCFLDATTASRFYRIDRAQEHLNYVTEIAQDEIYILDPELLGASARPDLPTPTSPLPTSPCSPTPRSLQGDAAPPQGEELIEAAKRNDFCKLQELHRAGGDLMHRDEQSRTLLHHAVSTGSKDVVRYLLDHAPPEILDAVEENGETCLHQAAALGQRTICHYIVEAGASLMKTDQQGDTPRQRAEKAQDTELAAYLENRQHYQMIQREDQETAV

Row | IC50 [1] [µM] | Compound | Emax IL2 (% activation) [2] [% activation] | EC50 [2] [µM]
1 | 0.77 | N[C@H]1CS(=O)(=O)c2ccc(-c3nnc(N4CCOC(C(F)(F)F)C4)o3)cc2N(Cc2ccc(-c3noc(C(F)(F)F)n3)cc2)C1=O (stereo partly drawn) [Example 74, (3R)-3-amino-1,1-dioxo-7-[5-[2-(trifluoromethyl)morpholin-4-yl]-1,3,4-oxadiazol-2-yl]-5-[[4-[5-(trifluoromethyl)-1,2,4-oxadiazol-3-yl]phenyl]methyl]-2,3-dihydro-1λ^6,5-benzothiazepin-4-one] | 206 | 1.46
2 | 2.68 | N[C@H]1CS(=O)(=O)c2ccc(-c3nnc(N4CCOC(C(F)(F)F)C4)o3)cc2N(Cc2ccc(-c3ccc(C(F)(F)F)cn3)cc2)C1=O (stereo partly drawn) [Example 75, (3R)-3-amino-1,1-dioxo-7-[5-[2-(trifluoromethyl)morpholin-4-yl]-1,3,4-oxadiazol-2-yl]-5-[[4-[5-(trifluoromethyl)-2-pyridyl]phenyl]methyl]-2,3-dihydro-1λ^6,5-benzothiazepin-4-one] | 140 | 2.55
3 | 1.08 | COc1ccc(-c2ccc(CN3C(=O)[C@@H](N)CS(=O)(=O)c4ccc(-c5nnc(N6CCC(F)(F)C6)o5)cc43)cc2)cc1 [Example 76, (3R)-3-amino-7-[5-(3,3-difluoropyrrolidin-1-yl)-1,3,4-oxadiazol-2-yl]-5-[[4-(4-methoxyphenyl)phenyl]methyl]-1,1-dioxo-2,3-dihydro-1λ^6,5-benzothiazepin-4-one] | 297 | 2.64
4 | 1.53 | N[C@H]1CS(=O)(=O)c2ccc(-c3nnc(N4CCOC5(CC5)C4)o3)cc2N(Cc2ccc(-c3noc(C(F)(F)F)n3)cc2)C1=O [Example 77] | 170 | 3.45
5 | 0.88 | COc1ccc(-c2ccc(CN3C(=O)[C@@H](N)CS(=O)(=O)c4ccc(-c5nnc(N6CCOC(F)(F)C6)o5)cc43)cc2)cc1 [Example 79, (3R)-3-amino-7-[5-(2,2-difluoromorpholin-4-yl)-1,3,4-oxadiazol-2-yl]-5-[[4-(4-methoxyphenyl)phenyl]methyl]-1,1-dioxo-2,3-dihydro-1λ^6,5-benzothiazepin-4-one] | 236 | 2.45
6 | 3.07 | N[C@H]1CS(=O)(=O)c2ccc(-c3noc(C4(N)COC4)n3)cc2N(Cc2ccc(-c3noc(C(F)(F)F)n3)cc2)C1=O [Example 84, (3R)-3-amino-7-[5-(3-aminooxetan-3-yl)-1,2,4-oxadiazol-3-yl]-1,1-dioxo-5-[[4-[5-(trifluoromethyl)-1,2,4-oxadiazol-3-yl]phenyl]methyl]-2,3-dihydro-1lambda6,5-benzothiazepin-4-one] | 33 | > 10
7 | 2.1 | N[C@H]1CS(=O)(=O)c2ccc(-c3noc(-c4cccnc4Cl)n3)cc2N(Cc2ccc(-c3noc(C4CC4)n3)cc2)C1=O [Example 85, (3R)-3-amino-7-[5-(2-chloro-3-pyridyl)-1,2,4-oxadiazol-3-yl]-5-[[4-(5-cyclopropyl-1,2,4-oxadiazol-3-yl)phenyl]methyl]-1,1-dioxo-2,3-dihydro-1λ^6,5-benzothiazepin-4-one] | 4 | > 10
8 | 0.642 | Cc1nc(F)ccc1-c1nc(-c2ccc3c(c2)N(Cc2ccc(-c4noc(C5CC5)n4)cc2)C(=O)[C@@H](N)CS3(=O)=O)no1 [Example 86, (3R)-3-amino-5-[[4-(5-cyclopropyl-1,2,4-oxadiazol-3-yl)phenyl]methyl]-7-[5-(6-fluoro-2-methyl-3-pyridyl)-1,2,4-oxadiazol-3-yl]-1,1-dioxo-2,3-dihydro-1λ^6,5-benzothiazepin-4-one] | 101 | 4.16
9 | 2.31 | N[C@H]1CS(=O)(=O)c2ccc(-c3noc(-c4cccnc4C(F)(F)F)n3)cc2N(Cc2ccc(-c3noc(C4CC4)n3)cc2)C1=O [Example 87, (3R)-3-amino-5-[[4-(5-cyclopropyl-1,2,4-oxadiazol-3-yl)phenyl]methyl]-1,1-dioxo-7-[5-[2-(trifluoromethyl)-3-pyridyl]-1,2,4-oxadiazol-3-yl]-2,3-dihydro-1λ^6,5-benzothiazepin-4-one] | 16 | > 10
10 | 0.613 | CC(C)(C)c1nnc(-c2ccc3c(c2)N(Cc2ccc(-c4nc(C(F)(F)F)co4)cc2)C(=O)[C@@H](N)CS3(=O)=O)o1 [Example 89, (3R)-3-amino-7-(5-tert-butyl-1,3,4-oxadiazol-2-yl)-1,1-dioxo-5-[[4-[4-(trifluoromethyl)oxazol-2-yl]phenyl]methyl]-2,3-dihydro-1λ^6,5-benzothiazepin-4-one] | 182 | 0.377
11 | 3.01 | CC(C)(C)c1nnc(-c2ccc3c(c2)N(Cc2ccc(-n4cnc(C(F)(F)F)n4)cc2)C(=O)[C@@H](N)CS3(=O)=O)o1 [Example 91, (3R)-3-amino-7-(5-tert-butyl-1,3,4-oxadiazol-2-yl)-1,1-dioxo-5-[[4-[3-(trifluoromethyl)-1,2,4-triazol-1-yl]phenyl]methyl]-2,3-dihydro-126,5-benzothiazepin-4-one] | 113 | 3.6
12 | 2.08 | N[C@H]1CS(=O)(=O)c2ccc(-c3nnc(C4(C5CC5)CCCO4)o3)cc2N(Cc2ccc(-c3nnc(C(F)(F)F)o3)cc2)C1=O (stereo partly drawn) [Example 97, (3R)-3-amino-7-[5-(2-cyclopropyltetra-hydrofuran-2-yl)-1,3,4-oxadiazol-2-yl]-1,1-dioxo-5-[[4-[5-(trifluoromethyl)-1,3,4-oxadiazol-2-yl]phenyl]methyl]-2,3-dihydro-1λ6,5-benzothiazepin-4-one] | 115 | 6.35
13 | 1.03 | CC(c1nc(-c2ccc(CN3C(=O)[C@@H](N)CS(=O)(=O)c4ccc(-c5nnc(C6(N)CCCCC6)o5)cc43)cc2)no1)C(F)(F)F (stereo partly drawn) [Example 98, (3R)-3-amino-7-[5-(1-aminocyclohexyl)-1,3,4-oxadiazol-2-yl]-1,1-dioxo-5-[[4-[5-(2,2,2-trifluoro-1-methyl-ethyl)-1,2,4-oxadiazol-3-yl]phenyl]methyl]-2,3-dihydro-1λ^6,5-benzothiazepin-4-one] | 97 | 1.37
14 | 0.767 | CC(C)(C#N)c1nnc(-c2ccc3c(c2)N(Cc2ccc(-n4ccc(C(F)(F)F)n4)cc2)C(=O)[C@@H](N)CS3(=O)=O)o1 [Example 121, 2-[5-[(3R)-3-amino-1,1,4-trioxo-5-[[4-[3-(trifluoromethyl)pyrazol-1-yl]phenyl]methyl]-2,3-dihydro-1λ^6,5-benzothiazepin-7-yl]-1,3,4-oxadiazol-2-yl]-2-methyl-propanenitrile] | 207 | 0.732
15 | 4.25 | CC1(c2nnc(-c3ccc4c(c3)N(Cc3ccc(-c5noc(C(F)(F)F)n5)cc3)C(=O)[C@@H](N)CS4(=O)=O)o2)COC1 [Example 149, (3R)-3-amino-7-[5-(3-methyloxetan-3-yl)-1,3,4-oxadiazol-2-yl]-1,1-dioxo-5-[[4-[5-(trifluoromethyl)-1,2,4-oxadiazol-3-yl]phenyl]methyl]-2,3-dihydro-1λ^6,5-benzothiazepin-4-one] | 268 | 0.567
16 | 9.91 | CC1(c2nnc(-c3ccc4c(c3)N(Cc3ccc(-c5ccc(C(F)(F)F)cn5)cc3)C(=O)[C@@H](N)CS4(=O)=O)o2)COC1 [Example 150, (3R)-3-amino-7-[5-(3-methyloxetan-3-yl)-1,3,4-oxadiazol-2-yl]-1,1-dioxo-5-[[4-[5-(trifluoromethyl)-2-pyridyl]phenyl]methyl]-2,3-dihydro-1λ^6,5-benzothiazepin-4-one] | 35 | > 10
17 | 2.28 | C[C@@](N)(c1nnc(-c2ccc3c(c2)N(Cc2ccc(-n4ccc(C(F)(F)F)n4)cc2)C(=O)[C@@H](N)CS3(=O)=O)o1)C(F)(F)F [Example 157, (3R)-3-amino-7-[5-[(1R)-1-amino-2,2,2-trifluoro-1-methyl-ethyl]-1,3,4-oxadiazol-2-yl]-1,1-dioxo-5-[[4-[3-(trifluoromethyl)pyrazol-1-yl]phenyl]methyl]-2,3-dihydro-1λ^6,5-benzothiazepin-4-one] | 106 | 1.78

Row | Compound | IC50 [1] [µM] | Emax IL2 (% activation) [2] [% activation] | EC50 [2] [µM]
18 | COC(=O)N1CC2CC(c3nnc(-c4ccc5c(c4)N(Cc4ccc(-c6ccc(C(F)(F)F)cn6)cc4)C(=O)[C@@H](N)CS5(=O)=O)o3)(C2)C1 [Example 159, methyl 1-[5-[(3R)-3-amino-1,1,4-trioxo-5-[[4-[5-(trifluoromethyl)-2-pyridyl]phenyl]methyl]-2,3-dihydro-1λ^6,5-benzothiazepin-7-yl]-1,3,4-oxadiazol-2-yl]-3-azabicyclo[3.1.1]heptane-3-carboxylate] | 1.35 | 188 | 0.912
